Test results reported in patent US12054483B2, “Small molecule inhibitors of DYRK/CLK and uses thereof” (Arizona Board of Regents on Behalf of the University of …, priority 2018, dated 2024).

Biological target: DYRK1A (Homo sapiens, UniProt Q13627)
Test: Affinity testing of compounds with DYRK1A (KD)
Format: binding
Details: DYRK1A affinity key classes

Row | Kd | Structure (SMILES)
1 | 0.5 to 100 nM | CC(=O)N1C[C@@H]2[C@H](C1)[C@H]2n1c(C)nc2ccc(-c3ccnc(N)c3)nc21 [Compound 47, 1-((1R,5S,6s)-6-(5-(2-aminopyridin-4-yl)-2-methyl-3H-imidazo[4,5-b]pyridin-3-yl)-3-azabicyclo[3.1.0]hexan-3-yl)ethan-1-one]
2 | 0.5 to 100 nM | Cc1nc2ccc(-c3ccnc(N)c3)nc2n1-c1ccc(=O)n(C)c1 [Compound 48, 5-(5-(2-aminopyridin-4-yl)-2-methyl-3H-imidazo[4,5-b]pyridin-3-yl)-1-methylpyridin-2(1H)-one]
3 | 0.5 to 100 nM | Cc1cc(-c2ccc3nc(C)n(-c4ccc5[nH]cnc5c4)c3n2)ccn1 [Compound 50, 3-(1H-benzo[d]imidazol-5-yl)-2-methyl-5-(2-methylpyridin-4-yl)-3H-imidazo[4,5-b]pyridine]
4 | 101 to 500 nM | Cc1cc(-c2ccc3nc(C)n(-c4ccc5[nH]cnc5c4)c3n2)cc(C)n1 [Compound 51, 3-(1H-benzo[d]imidazol-5-yl)-5-(2,6-dimethylpyridin-4-yl)-2-methyl-3H-imidazo[4,5-b]pyridine]
5 | 501 to 10000 nM | Cc1nc2ccc(-c3cc[nH]c(=O)c3)nc2n1-c1ccc(N2CCOCC2)cc1 [Compound 54, 4-(2-methyl-3-(4-morpholinophenyl)-3H-imidazo[4,5-b]pyridin-5-yl)pyridin-2(1H)-one]
6 | 101 to 500 nM | Cc1nc2ccc(-c3ccncc3)nc2n1-c1ccc(C(=O)N2CCN(C3COC3)CC2)cc1 [Compound 57, (4-(2-methyl-5-(pyridin-4-yl)-3H-imidazo[4,5-b]pyridin-3-yl)phenyl)(4-(oxetan-3-yl)piperazin-1-yl)methanone]
7 | 101 to 500 nM | Cc1nc2ccc(-c3ccncc3)nc2n1-c1ccc(C(=O)NC2CC(F)(F)C2)cc1 [Compound 58, N-(3,3-difluorocyclobutyl)-4-(2-methyl-5-(pyridin-4-yl)-3H-imidazo[4,5-b]pyridin-3-yl)benzamide]
8 | 0.5 to 100 nM | c1cc(-c2ccc3nnn(-c4ccc5[nH]cnc5c4)c3n2)ccn1 [Compound 59, 3-(1H-benzo[d]imidazol-5-yl)-5-(pyridin-4-yl)-3H-[1,2,3]triazolo[4,5-b]pyridine]
9 | 501 to 10000 nM | Cc1nc2ccc(-c3cc[n+]([O-])cc3)nc2n1-c1ccc2c(c1)OCO2 [Compound 60, 4-(3-(benzo[d][1,3]dioxol-5-yl)-2-methyl-3H-imidazo[4,5-b]pyridin-5-yl)-1λ^4-pyridin-2-ylium-1-olate]
10 | 0.5 to 100 nM | c1cc(-c2cn3c(-c4ccc5c(c4)OCO5)cnc3cn2)ccn1 [Compound 67, 3-(benzo[d][1,3]dioxol-5-yl)-6-(pyridin-4-yl)imidazo[1,2-a]pyrazine]
11 | 0.5 to 100 nM | c1cc(-c2ccc3ncc(-c4ccc(N5CCOCC5)nc4)n3n2)ccn1 [Compound 73, 4-(5-(6-(pyridin-4-yl)imidazo[1,2-b]pyridazin-3-yl)pyridin-2-yl)morpholine]
12 | 101 to 500 nM | c1cc(-c2ccc3ncc(-c4ccc(N5CCCCC5)nc4)n3n2)ccn1 [Compound 74, 3-(6-(piperidin-1-yl)pyridin-3-yl)-6-(pyridin-4-yl)imidazo[1,2-b]pyridazine]
13 | 0.5 to 100 nM | c1cc(-c2ccc3ncc(-c4ccc5[nH]ccc5c4)n3n2)ccn1 [Compound 77, 3-(1H-indol-5-yl)-6-(pyridin-4-yl)imidazo[1,2-b]pyridazine]
14 | 101 to 500 nM | Fc1cc(-c2cnc3ccc(-c4ccncc4)nn23)ccc1CN1CCOCC1 [Compound 78, 4-(2-fluoro-4-(6-(pyridin-4-yl)imidazo[1,2-b]pyridazin-3-yl)benzyl)morpholine]
15 | 101 to 500 nM | Cc1cc(-c2ccc3ncc(-c4ccc(N5CCCCC5)nc4)n3n2)ccn1 [Compound 81, 6-(2-methylpyridin-4-yl)-3-(6-(piperidin-1-yl)pyridin-3-yl)imidazo[1,2-b]pyridazine]
16 | 0.5 to 100 nM | c1cc(-c2ccc3ncc(-c4ccc(N5CCN(C6COC6)CC5)nc4)n3n2)ccn1 [Compound 83, 3-(6-(4-(oxetan-3-yl)piperazin-1-yl)pyridin-3-yl)-6-(pyridin-4-yl)imidazo[1,2-b]pyridazine]
17 | 501 to 10000 nM | CN1CCN(c2cnc3ccc(-c4ccncc4)nn23)CC1 [Compound 86, 3-(4-methylpiperazin-1-yl)-6-(pyridin-4-yl)imidazo[1,2-b]pyridazine]
18 | 101 to 500 nM | Cc1cc(-c2ccc3ncc(-c4ccc(CN5CCCC(F)(F)C5)cc4)n3n2)ccn1 [Compound 89, 3-(4-((3,3-difluoropiperidin-1-yl)methyl)phenyl)-6-(2-methylpyridin-4-yl)imidazo[1,2-b]pyridazine]
19 | 0.5 to 100 nM | Cc1cc(-c2ccc3ncc(-c4ccc(CN5C[C@@H]6C[C@@H]5CO6)cc4)n3n2)ccn1 [Compound 91, (1S,4R)-5-(4-(6-(2-methylpyridin-4-yl)imidazo[1,2-b]pyridazin-3-yl)benzyl)-2-oxa-5-azabicyclo[2.2.1]heptane]

The next lines start with the compound.

Row | Structure (SMILES) | Kd
20 | Cc1nc2ccc(-c3ccnc(N)c3)nc2n1-c1ccc2[nH]cnc2c1 [Compound 49, 4-(3-(1H-benzo[d]imidazol-5-yl)-2-methyl-3H-imidazo[4,5-b]pyridin-5-yl)pyridin-2-amine] | 0.5 to 100 nM
21 | Cc1cc(-c2ccc3nc(C)n(-c4ccc(N5CCOCC5)cc4)c3n2)cc(C)n1 [Compound 53, 4-(4-(5-(2,6-dimethylpyridin-4-yl)-2-methyl-3H-imidazo[4,5-b]pyridin-3-yl)phenyl)morpholine] | 501 to 10000 nM
22 | Cc1nc2ccc(-c3ccncc3)nc2n1-c1ccc(C(=O)N2CCOCC2)cc1 [Compound 56, (4-(2-methyl-5-(pyridin-4-yl)-3H-imidazo[4,5-b]pyridin-3-yl)phenyl)(morpholino)methanone] | 101 to 500 nM
23 | Cc1nc2ccc(-c3ccnc(C(F)F)c3)nc2n1-c1ccc2c(c1)OCO2 [Compound 61, 3-(benzo[d][1,3]dioxol-5-yl)-5-(2-(difluoromethyl)pyridin-4-yl)-2-methyl-3H-imidazo[4,5-b]pyridine] | 501 to 10000 nM
24 | Cc1nc2ccc(-c3ccncc3)nc2n1-c1ncc(CN2CCCC(F)(F)C2)s1 [Compound 62, 5-((3,3-difluoropiperidin-1-yl)methyl)-2-(2-methyl-5-(pyridin-4-yl)-3H-imidazo[4,5-b]pyridin-3-yl)thiazole] | 0.5 to 100 nM
25 | Cc1nc2ccc(-c3ccncc3)nc2n1-c1ccc(CN2CCN(C3COC3)CC2)cc1 [Compound 63, 2-methyl-3-(4-((4-(oxetan-3-yl)piperazin-1-yl)methyl)phenyl)-5-(pyridin-4-yl)-3H-imidazo[4,5-b]pyridine] | 0.5 to 100 nM
26 | Cc1nc2ccc(-c3ccncc3)nc2n1-c1ccc(CN2CCOCC2)cn1 [Compound 64, 4-((6-(2-methyl-5-(pyridin-4-yl)-3H-imidazo[4,5-b]pyridin-3-yl)pyridin-3-yl)methyl)morpholine] | 501 to 10000 nM
27 | Cc1nc2ccc(-c3ccncc3)nc2n1-c1ccc(CN2CCCC(F)(F)C2)cc1 [Compound 65, 3-(4-((3,3-difluoropiperidin-1-yl)methyl)phenyl)-2-methyl-5-(pyridin-4-yl)-3H-imidazo[4,5-b]pyridine] | 101 to 500 nM
28 | c1cc(-c2cn3cnnc3cn2)ccn1 [Compound 68, 6-(pyridin-4-yl)-[1,2,4]triazolo[4,3-a]pyrazine] | 501 to 10000 nM
29 | COc1cnc(-c2ccnc(N)c2)nc1 [Compound 69, 4-(5-methoxypyrimidin-2-yl)pyridin-2-amine] | 101 to 500 nM
30 | COc1cnc(-c2ccncc2)nc1 [Compound 70, 5-methoxy-2-(pyridin-4-yl)pyrimidine] | 501 to 10000 nM
31 | Cc1nc2cc(-c3ccnc(N)c3)cnc2[nH]1 [Compound 71, 4-(2-methyl-3H-imidazo[4,5-b]pyridin-6-yl)pyridin-2-amine] | 0.5 to 100 nM
32 | COC(=O)c1ccc(-c2cnc3ccc(-c4ccncc4)nn23)cc1 [Compound 72, methyl 4-(6-(pyridin-4-yl)imidazo[1,2-b]pyridazin-3-yl)benzoate] | 0.5 to 100 nM
33 | COc1cccc(-c2cnc3ccc(-c4ccncc4)nn23)c1 [Compound 75, 3-(3-methoxyphenyl)-6-(pyridin-4-yl)imidazo[1,2-b]pyridazine] | 501 to 10000 nM
34 | c1cc(-c2ccc3ncc(-c4ccc(N5CCNCC5)nc4)n3n2)ccn1 [Compound 76, 3-(6-(piperazin-1-yl)pyridin-3-yl)-6-(pyridin-4-yl)imidazo[1,2-b]pyridazine] | 0.5 to 100 nM
35 | Fc1cc(-c2cnc3ccc(-c4ccncc4)nn23)ccc1CN1CCCCC1 [Compound 79, 3-(3-fluoro-4-(piperidin-1-ylmethyl)phenyl)-6-(pyridin-4-yl)imidazo[1,2-b]pyridazine] | 101 to 500 nM
36 | Cc1cc(-c2ccc3ncc(-c4ccc(N5CCOCC5)nc4)n3n2)ccn1 [Compound 80, 4-(5-(6-(2-methylpyridin-4-yl)imidazo[1,2-b]pyridazin-3-yl)pyridin-2-yl)morpholine] | 101 to 500 nM
37 | Cc1cc(-c2ccc3ncc(N4CCN(C5COC5)CC4)n3n2)ccn1 [Compound 84, 6-(2-methylpyridin-4-yl)-3-(4-(oxetan-3-yl)piperazin-1-yl)imidazo[1,2-b]pyridazine] | 501 to 10000 nM
38 | CC(=O)N1CCN(c2cnc3ccc(-c4ccncc4)nn23)CC1 [Compound 85, 1-(4-(6-(pyridin-4-yl)imidazo[1,2-b]pyridazin-3-yl)piperazin-1-yl)ethan-1-one] | 501 to 10000 nM
39 | CN1CCN(c2ccc(-c3cnc4ccc(-c5ccncc5)nn34)cn2)CC1 [Compound 87, 3-(6-(4-methylpiperazin-1-yl)pyridin-3-yl)-6-(pyridin-4-yl)imidazo[1,2-b]pyridazine] | 0.5 to 100 nM
40 | Cc1cc(-c2ccc3ncc(-c4ccc(CN5CCOCC5)cc4)n3n2)ccn1 [Compound 90, 4-(4-(6-(2-methylpyridin-4-yl)imidazo[1,2-b]pyridazin-3-yl)benzyl)morpholine] | 101 to 500 nM
41 | Cc1cc(-c2ccc3ncc(-c4ccc(CN5CCCCC5)cc4)n3n2)ccn1 [Compound 92, 6-(2-methylpyridin-4-yl)-3-(4-(piperidin-1-ylmethyl)phenyl)imidazo[1,2-b]pyridazine] | 101 to 500 nM
42 | Cc1cc(-c2ccc3ncc(-c4ccc(CN5CCC(C)(C)CC5)cc4)n3n2)ccn1 [Compound 93, 3-(4-((4,4-dimethylpiperidin-1-yl)methyl)phenyl)-6-(2-methylpyridin-4-yl)imidazo[1,2-b]pyridazine] | 101 to 500 nM
